According to patent US12344610B2, “APOL1 inhibitors and methods of use” (Maze Therapeutics, Inc., priority 2022, dated 2025):

Target: T1, APOL1 G2 (Homo sapiens, UniProt O14791, DEL388-389)
T1 construct: expressed in transfected cells; host or cells: HEK293 T-REx clonal line stably expressing GCaMP6f (HEK T-REx/GCaMP6f/APOL1 G2 K6.3), doxycycline induced
T1 sequence (O14791 with tags, fused parts or gaps DEL388-389): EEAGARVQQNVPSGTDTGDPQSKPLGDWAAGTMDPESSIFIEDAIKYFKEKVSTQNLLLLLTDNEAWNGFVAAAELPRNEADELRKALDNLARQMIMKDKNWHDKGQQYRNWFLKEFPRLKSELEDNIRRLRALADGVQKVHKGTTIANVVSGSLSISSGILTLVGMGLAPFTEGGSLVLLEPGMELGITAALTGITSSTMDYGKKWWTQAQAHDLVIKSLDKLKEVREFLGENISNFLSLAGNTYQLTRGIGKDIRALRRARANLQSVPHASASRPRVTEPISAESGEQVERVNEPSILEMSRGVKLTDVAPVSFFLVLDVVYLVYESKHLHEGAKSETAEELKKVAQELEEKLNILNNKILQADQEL
Test: APOL1-mediated calcium transport (calcium influx) assay, HEK T-REx/GCaMP6f/APOL1 G2 K6.3 cells, FLIPR TETRA
Type: cell-based
Details: prevention of calcium influx; geometric mean of at least 2 assay runs; † = average of a technical replicate from a single assay run
Procedure, shortened: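 A HEK293 T-REx clone stably expressing GCaMP6f had APOL1 G2 induced with doxycycline (20 ng/mL solution added) for 6 h. Cells were then washed into Ca2+-free Tyrode's buffer (pH 7.4) and preincubated with compounds (duplicate 8-point) for 10 min at room temperature. Ca2+ injection to 5 mM final produced FLIPR GCaMP fluorescence, giving AC50 for influx inhibition (geometric mean, ≥2 runs).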

SMILES	AC50
CN(C)C(=O)C1(S(=O)(=O)c2ccc(OCCN3CCC4(CC3)C(=O)Nc3ccc(Cl)cc34)cc2)CC1 [Compound 227, 1-[4-(2-{5-chloro-2-oxo-1,2-dihydrospiro[indole-3,4′-piperidin]-1′-yl}ethoxy)benzenesulfonyl]-N,N-dimethylcyclopropane-1-carboxamide]	1110 nM
O=C1Nc2ccc(Cl)cc2C12CCN(CCOc1ccc(S(=O)(=O)C3(C(=O)N4CCC4)CC3)cc1)CC2 [Compound 228, 1′-[2-(4-{[1-(azetidine-1-carbonyl)cyclopropyl]sulfonyl}phenoxy)ethyl]-5-chloro-1,2-dihydrospiro[indole-3,4′-piperidin]-2-one]	1200 nM
CNC(=O)c1ccc(OCCN2CCC3(CC2)C(=O)Nc2ccc(Cl)cc23)cc1F [Compound 229, 4-(2-{5-chloro-2-oxo-1,2-dihydrospiro[indole-3,4′-piperidin]-1′-yl}ethoxy)-2-fluoro-N-methylbenzamide]	792 nM
CN(C)C(=O)c1ccc(OCCN2CCC3(CC2)C(=O)Nc2ccc(Cl)cc23)cc1F [Compound 230, 4-(2-{5-chloro-2-oxo-1,2-dihydrospiro[indole-3,4′-piperidin]-1′-yl}ethoxy)-2-fluoro-N,N-dimethylbenzamide]	891 nM
O=C(c1ccc(OCCN2CCC3(CC2)C(=O)Nc2ccc(Cl)cc23)cc1F)N1CCOCC1 [Compound 231, 5-chloro-1′-{2-[3-fluoro-4-(morpholine-4-carbonyl)phenoxy]ethyl}-1,2-dihydrospiro[indole-3,4′-piperidin]-2-one]	1020 nM
O=C(c1ccc(OCCN2CCC3(CC2)C(=O)Nc2ccc(Cl)cc23)cc1F)N1CCS(=O)(=O)CC1 [Compound 232, 4-[4-(2-{5-chloro-2-oxo-1,2-dihydrospiro[indole-3,4′-piperidin]-1′-yl}ethoxy)-2-fluorobenzoyl]-1λ^6-thiomorpholine-1,1-dione]	1010 nM
CS(=O)(=O)C1CN(C(=O)c2ccc(OCCN3CCC4(CC3)C(=O)Nc3ccc(Cl)cc34)cc2F)C1 [Compound 233, 5-chloro-1′-{2-[3-fluoro-4-(3-methanesulfonyl-azetidine-1-carbonyl)phenoxy]ethyl}-1,2-dihydrospiro[indole-3,4′-piperidin]-2-one]	1160 nM
O=C(c1ccc(OCCN2CCC3(CC2)C(=O)Nc2ccc(Cl)cc23)cc1F)N1CCC1 [Compound 234, 1′-{2-[4-(azetidine-1-carbonyl)-3-fluorophenoxy]ethyl}-5-chloro-1,2-dihydrospiro[indole-3,4′-piperidin]-2-one]	786 nM
O=C(c1ccc(OCCN2CCC3(CC2)C(=O)Nc2ccc(Cl)cc23)cc1F)N1CC(O)C1 [Compound 235, 5-chloro-1′-{2-[3-fluoro-4-(3-hydroxyazetidine-1-carbonyl)phenoxy]ethyl}-1,2-dihydrospiro[indole-3,4′-piperidin]-2-one]	1000 nM
NC1CN(C(=O)c2ccc(OCCN3CCC4(CC3)C(=O)Nc3ccc(Cl)cc34)cc2F)C1 [Compound 236, 1′-{2-[4-(3-aminoazetidine-1-carbonyl)-3-fluorophenoxy]ethyl}-5-chloro-1,2-dihydrospiro[indole-3,4′-piperidin]-2-one]	634 nM
CS(=O)(=O)NC1CN(C(=O)c2ccc(OCCN3CCC4(CC3)C(=O)Nc3ccc(Cl)cc34)cc2F)C1 [Compound 237, N-{1-[4-(2-{5-chloro-2-oxo-1,2-dihydrospiro[indole-3,4′-piperidin]-1′-yl}ethoxy)-2-fluorobenzoyl]azetidin-3-yl} methanesulfonamide]	3310 nM
N#Cc1ccc2c(c1)C1(CCN(CCOc3ccc(C(N)=O)c(F)c3)CC1)C(=O)N2 [Compound 238, 4-(2-{5-cyano-2-oxo-1,2-dihydrospiro[indole-3,4′-piperidin]-1′-yl}ethoxy)-2-fluorobenzamide]	285 nM
O=C(c1ccc(OCCN2CCC3(CC2)C(=O)Nc2ccc(Cl)cc23)cc1F)N1CC2(C1)CS(=O)(=O)C2 [Compound 239, 6-[4-(2-{5-chloro-2-oxo-1,2-dihydrospiro[indole-3,4′-piperidin]-1′-yl}ethoxy)-2-fluorobenzoyl]-2λ^6-thia-6-azaspiro[3.3]heptane-2,2-dione]	1540 nM
Cc1n[nH]cc1-c1ccc(OCCN2CCC3(CC2)C(=O)Nc2ccc(Cl)cc23)cc1 [Compound 244, 5-chloro-1′-{2-[4-(5-methyl-1H-pyrazol-4-yl)phenoxy]ethyl}-1,2-dihydrospiro[indole-3,4′-piperidin]-2-one]	1060 nM
CNC(=O)N1CCc2cc(OCCN3CCC4(CC3)C(=O)Nc3ccc(Cl)cc34)ccc2C1 [Compound 245, 6-(2-{5-chloro-2-oxo-1,2-dihydrospiro[indole-3,4′-piperidin]-1′-yl}ethoxy)-N-methyl-1,2,3,4-tetrahydroisoquinoline-2-carboxamide]	718 nM
Cn1c(=O)[nH]c2cc(OCCN3CCC4(CC3)C(=O)Nc3ccc(Cl)cc34)cnc21 [Compound 247, 5-chloro-1′-[2-({3-methyl-2-oxo-1H,2H,3H-imidazo[4,5-b]pyridin-6-yl}oxy)ethyl]-1,2-dihydrospiro[indole-3,4′-piperidin]-2-one]	806 nM
O=C1Nc2ccc(Cl)cc2C12CCN(CCOc1ccc(S(=O)(=O)C3(CO)CC3)nc1)CC2 [Compound 248, 5-chloro-1′-{2-[(6-{[1-(hydroxymethyl)cyclopropyl]sulfonyl}pyridin-3-yl)oxy]ethyl}-1,2-dihydrospiro[indole-3,4′-piperidin]-2-one]	820 nM
NC(=O)c1ccc(OCCN2CCC3(CC2)C(=O)Nc2ccc(Cl)cc23)cc1C(F)F [Compound 249, 4-(2-{5-chloro-2-oxo-1,2-dihydrospiro[indole-3,4′-piperidin]-1′-yl}ethoxy)-2-(difluoromethyl)benzamide]	433 nM
N#Cc1ccc2c(c1)C1(CCN(CCOc3ccc(C(N)=O)c(C(F)F)c3)CC1)C(=O)N2 [Compound 250, 4-(2-{5-cyano-2-oxo-1,2-dihydrospiro[indole-3,4′-piperidin]-1′-yl}ethoxy)-2-(difluoromethyl)benzamide]	559 nM
CN1C(=O)C2(CCN(CCOc3ccc(C4(S(C)(=O)=O)COC4)cc3)CC2)c2cc(C#N)ccc21 [Compound 251, 1′-{2-[4-(3-methanesulfonyloxetan-3-yl)phenoxy]ethyl}-1-methyl-2-oxo-1,2-dihydrospiro[indole-3,4′-piperidine]-5-carbonitrile]	546 nM
CN(C)C(=O)C1(c2ccc(OCCN3CCC4(CC3)C(=O)Nc3ccc(C#N)cc34)cc2)COC1 [Compound 254, 3-[4-(2-{5-cyano-2-oxo-1,2-dihydrospiro[indole-3,4′-piperidin]-1′-yl}ethoxy)phenyl]-N,N-dimethyloxetane-3-carboxamide]	898 nM
CNC(=O)C1(c2ccc(OCCN3CCC4(CC3)C(=O)Nc3ccc(C#N)cc34)cc2)COC1 [Compound 255, 3-[4-(2-{5-cyano-2-oxo-1,2-dihydrospiro[indole-3,4′-piperidin]-1′-yl}ethoxy)phenyl]-N-methyloxetane-3-carboxamide]	2640 nM
O=C(c1c(F)cc(OCCN2CCC3(CC2)C(=O)Nc2ccc(Cl)cc23)cc1F)N1CCS(=O)(=O)CC1 [Compound 259, 4-[4-(2-{5-chloro-2-oxo-1,2-dihydrospiro[indole-3,4′-piperidin]-1′-yl}ethoxy)-2,6-difluorobenzoyl]-1λ^6-thiomorpholine-1,1-dione]	651 nM
CN1C(=O)C2(CCN(CCOc3cc(F)c(C(=O)N4CCS(=O)(=O)CC4)c(F)c3)CC2)c2cc(C#N)ccc21 [Compound 260, 1′-{2-[4-(1,1-dioxo-1λ^6-thiomorpholine-4-carbonyl)-3,5-difluorophenoxy]ethyl}-1-methyl-2-oxo-1,2-dihydrospiro[indole-3,4′-piperidine]-5-carbonitrile]	1380 nM
CN1C(=O)C2(CCN(CCOc3ccc(C(=O)N4CCS(=O)(=O)CC4)c(C(F)(F)F)c3)CC2)c2cc(C#N)ccc21 [Compound 261, 1′-{2-[4-(1,1-dioxo-1λ^6-thiomorpholine-4-carbonyl)-3-(trifluoromethyl)phenoxy]ethyl}-1-methyl-2-oxo-1,2-dihydrospiro[indole-3,4′-piperidine]-5-carbonitrile]	1460 nM
CS(=O)(=O)c1ccc(OCCN2CCC3(CC2)C(=O)N(CCO)c2ccc(Cl)cc23)cc1C(F)F [Compound 265, 5-chloro-1′-{2-[3-(difluoromethyl)-4-methanesulfonylphenoxy]ethyl}-1-(2-hydroxyethyl)-1,2-dihydrospiro[indole-3,4′-piperidin]-2-one]	697 nM
CS(=O)(=O)c1ccc(OCCN2CCC3(CC2)C(=O)N(CCO)c2ccc(C#N)cc23)cc1C(F)F [Compound 266, 1′-{2-[3-(difluoromethyl)-4-methanesulfonylphenoxy]ethyl}-1-(2-hydroxyethyl)-2-oxo-1,2-dihydrospiro[indole-3,4′-piperidine]-5-carbonitrile]	862 nM
O=C(c1ccc(OCCN2CCC3(CC2)C(=O)Nc2ccc(Cl)cc23)cc1C(F)(F)F)N1CCS(=O)(=O)CC1 [Compound 272, 4-[4-(2-{5-chloro-2-oxo-1,2-dihydrospiro[indole-3,4′-piperidin]-1′-yl}ethoxy)-2-(trifluoromethyl)benzoyl]-1λ^6-thiomorpholine-1,1-dione]	921 nM
